“And” between values parts separate entries of the source, which are not always exact repeats. Equal entries are not always repeated. Where two headings read alike, the source gives them in different places.
Assays:
CDK13/cyclin K = CDK13/cyclin K (Homo sapiens, UniProt Q14004); assay: SelectScreen kinase assay; assay type: biochemical
CDK2/cyclin A1 = CDK2/cyclin A1 (Homo sapiens, UniProt P24941); assay: SelectScreen kinase assay
Description: (§1) Selectivity profiling assays were performed by the Invitrogen SelectScreen™ Services. […] The concentration of ATP was selected to be equal to the KM, unless indicated otherwise.

CLK2 = CLK2 (Homo sapiens, UniProt P49760); assay: SelectScreen kinase assay; conditions: 1 h, 1 μM WEL028, 1 h preincubation
Description: as §1

MAP3K5 (ASK1) = molecular target: T1, MAP3K5 (ASK1) (Homo sapiens, UniProt Q99683); assay: SelectScreen kinase assay
T1 sequence (Q99683 1-1374): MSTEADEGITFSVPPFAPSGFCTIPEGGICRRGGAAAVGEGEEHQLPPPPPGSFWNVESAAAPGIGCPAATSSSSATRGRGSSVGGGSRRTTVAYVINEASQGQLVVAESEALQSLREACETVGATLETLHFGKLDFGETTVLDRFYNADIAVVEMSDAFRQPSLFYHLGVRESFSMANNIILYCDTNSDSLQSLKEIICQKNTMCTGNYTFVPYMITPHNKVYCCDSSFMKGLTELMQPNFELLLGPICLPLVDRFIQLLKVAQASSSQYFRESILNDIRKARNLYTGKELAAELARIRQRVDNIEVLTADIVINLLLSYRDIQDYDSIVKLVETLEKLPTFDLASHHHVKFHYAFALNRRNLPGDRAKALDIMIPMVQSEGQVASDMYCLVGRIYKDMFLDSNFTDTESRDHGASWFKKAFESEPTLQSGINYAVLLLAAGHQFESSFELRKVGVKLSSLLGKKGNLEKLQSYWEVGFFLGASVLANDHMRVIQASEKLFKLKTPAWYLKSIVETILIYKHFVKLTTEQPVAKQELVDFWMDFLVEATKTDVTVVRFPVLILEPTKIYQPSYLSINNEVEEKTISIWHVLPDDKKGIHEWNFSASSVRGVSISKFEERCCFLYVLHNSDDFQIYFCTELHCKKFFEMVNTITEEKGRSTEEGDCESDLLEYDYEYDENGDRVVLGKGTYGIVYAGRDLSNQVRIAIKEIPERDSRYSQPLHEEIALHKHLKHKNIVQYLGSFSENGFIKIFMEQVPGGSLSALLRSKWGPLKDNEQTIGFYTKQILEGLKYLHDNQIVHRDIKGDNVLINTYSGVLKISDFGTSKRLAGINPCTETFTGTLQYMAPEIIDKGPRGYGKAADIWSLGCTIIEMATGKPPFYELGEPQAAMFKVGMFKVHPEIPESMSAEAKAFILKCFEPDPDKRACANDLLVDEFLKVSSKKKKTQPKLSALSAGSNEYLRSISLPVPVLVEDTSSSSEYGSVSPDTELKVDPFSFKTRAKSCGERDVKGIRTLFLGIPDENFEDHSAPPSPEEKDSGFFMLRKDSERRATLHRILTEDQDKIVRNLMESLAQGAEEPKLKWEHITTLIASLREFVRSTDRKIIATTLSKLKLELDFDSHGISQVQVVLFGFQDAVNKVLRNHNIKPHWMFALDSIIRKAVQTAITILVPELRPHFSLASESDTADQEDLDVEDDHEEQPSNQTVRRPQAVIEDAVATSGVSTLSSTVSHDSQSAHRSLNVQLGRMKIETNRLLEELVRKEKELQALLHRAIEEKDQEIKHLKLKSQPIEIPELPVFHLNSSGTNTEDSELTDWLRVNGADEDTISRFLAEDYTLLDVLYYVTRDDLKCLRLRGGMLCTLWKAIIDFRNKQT
Description: as §1

MAP4K4 (HGK) = MAP4K4 (HGK) (Homo sapiens, UniProt O95819); assay: SelectScreen kinase assay; conditions: 1 h, 1 μM WEL028, 1 h preincubation
Description: as §1

ROCK2 = ROCK2 (Homo sapiens, UniProt O75116); assay: SelectScreen kinase assay; conditions: 1 h, 1 μM WEL028, 1 h preincubation
Description: as §1

SGK2 = SGK2 (Homo sapiens, UniProt Q9HBY8); assay: SelectScreen kinase assay
Chain of SGK2 (Q9HBY8 whole entry): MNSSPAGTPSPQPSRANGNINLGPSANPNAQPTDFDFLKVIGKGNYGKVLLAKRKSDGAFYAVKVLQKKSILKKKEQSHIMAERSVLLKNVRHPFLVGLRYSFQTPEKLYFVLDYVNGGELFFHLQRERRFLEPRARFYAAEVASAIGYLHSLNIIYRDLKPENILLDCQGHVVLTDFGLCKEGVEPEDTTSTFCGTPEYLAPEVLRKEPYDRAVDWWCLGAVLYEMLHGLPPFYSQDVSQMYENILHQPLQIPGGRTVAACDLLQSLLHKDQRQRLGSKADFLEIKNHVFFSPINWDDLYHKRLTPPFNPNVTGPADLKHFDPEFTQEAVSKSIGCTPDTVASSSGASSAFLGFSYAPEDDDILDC
Description: as §1

STK33 = STK33 (Homo sapiens, UniProt Q9BYT3); assay: SelectScreen kinase assay
Chain of STK33 (Q9BYT3 whole entry, species assumed): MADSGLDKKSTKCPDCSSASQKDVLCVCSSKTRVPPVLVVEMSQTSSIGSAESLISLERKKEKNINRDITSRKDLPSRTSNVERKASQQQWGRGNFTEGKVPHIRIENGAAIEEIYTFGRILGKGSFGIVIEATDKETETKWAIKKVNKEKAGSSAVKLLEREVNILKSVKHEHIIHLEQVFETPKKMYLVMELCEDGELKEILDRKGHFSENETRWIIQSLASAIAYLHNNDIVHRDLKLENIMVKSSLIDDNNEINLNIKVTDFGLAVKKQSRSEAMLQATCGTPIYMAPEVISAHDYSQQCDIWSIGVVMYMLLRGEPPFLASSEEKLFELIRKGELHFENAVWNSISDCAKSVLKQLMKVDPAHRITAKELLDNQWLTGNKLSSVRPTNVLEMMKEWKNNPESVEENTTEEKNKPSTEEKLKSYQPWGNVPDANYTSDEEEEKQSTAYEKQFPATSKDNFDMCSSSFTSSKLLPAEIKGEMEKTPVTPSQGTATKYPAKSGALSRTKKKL
Description: as §1

ZAK = ZAK (Homo sapiens, UniProt Q9NYL2); assay: SelectScreen kinase assay; conditions: for Inhibition at 1 µM (%): LanthaScreen Binding
Chain of ZAK (Q9NYL2 whole entry): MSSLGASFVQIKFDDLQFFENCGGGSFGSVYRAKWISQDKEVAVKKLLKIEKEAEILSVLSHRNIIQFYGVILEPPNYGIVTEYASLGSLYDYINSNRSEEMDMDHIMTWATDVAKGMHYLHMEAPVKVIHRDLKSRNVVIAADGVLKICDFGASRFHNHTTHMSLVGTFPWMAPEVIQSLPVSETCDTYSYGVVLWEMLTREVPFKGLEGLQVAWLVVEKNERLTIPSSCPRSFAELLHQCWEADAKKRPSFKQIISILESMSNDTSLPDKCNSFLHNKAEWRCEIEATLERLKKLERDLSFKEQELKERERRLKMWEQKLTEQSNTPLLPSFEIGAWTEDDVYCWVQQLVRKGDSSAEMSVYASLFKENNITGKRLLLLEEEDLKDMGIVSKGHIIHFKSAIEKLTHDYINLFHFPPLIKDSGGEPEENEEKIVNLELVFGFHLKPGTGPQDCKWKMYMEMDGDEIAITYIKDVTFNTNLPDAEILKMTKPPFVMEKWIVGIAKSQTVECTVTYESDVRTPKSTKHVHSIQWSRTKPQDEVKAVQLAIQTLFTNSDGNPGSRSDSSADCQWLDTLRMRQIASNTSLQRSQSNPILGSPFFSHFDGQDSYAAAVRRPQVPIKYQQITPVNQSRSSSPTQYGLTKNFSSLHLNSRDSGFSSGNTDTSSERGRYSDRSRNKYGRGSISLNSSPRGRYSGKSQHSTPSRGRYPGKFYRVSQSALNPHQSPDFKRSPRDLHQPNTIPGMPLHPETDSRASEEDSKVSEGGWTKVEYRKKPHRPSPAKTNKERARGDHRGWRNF
Description: as §1

FES^S700C = FES^S700C (Homo sapiens, UniProt P07332, S700C); assay: FES Y713 autophosphorylation immunoblot, transfected HEK293T cells; assay type: cell-based; design: expressed in transfected cells; host or cells: HEK293T (transient, PEI); conditions: WEL028 100 nM
Chain of FES^S700C (P07332 whole entry S700C): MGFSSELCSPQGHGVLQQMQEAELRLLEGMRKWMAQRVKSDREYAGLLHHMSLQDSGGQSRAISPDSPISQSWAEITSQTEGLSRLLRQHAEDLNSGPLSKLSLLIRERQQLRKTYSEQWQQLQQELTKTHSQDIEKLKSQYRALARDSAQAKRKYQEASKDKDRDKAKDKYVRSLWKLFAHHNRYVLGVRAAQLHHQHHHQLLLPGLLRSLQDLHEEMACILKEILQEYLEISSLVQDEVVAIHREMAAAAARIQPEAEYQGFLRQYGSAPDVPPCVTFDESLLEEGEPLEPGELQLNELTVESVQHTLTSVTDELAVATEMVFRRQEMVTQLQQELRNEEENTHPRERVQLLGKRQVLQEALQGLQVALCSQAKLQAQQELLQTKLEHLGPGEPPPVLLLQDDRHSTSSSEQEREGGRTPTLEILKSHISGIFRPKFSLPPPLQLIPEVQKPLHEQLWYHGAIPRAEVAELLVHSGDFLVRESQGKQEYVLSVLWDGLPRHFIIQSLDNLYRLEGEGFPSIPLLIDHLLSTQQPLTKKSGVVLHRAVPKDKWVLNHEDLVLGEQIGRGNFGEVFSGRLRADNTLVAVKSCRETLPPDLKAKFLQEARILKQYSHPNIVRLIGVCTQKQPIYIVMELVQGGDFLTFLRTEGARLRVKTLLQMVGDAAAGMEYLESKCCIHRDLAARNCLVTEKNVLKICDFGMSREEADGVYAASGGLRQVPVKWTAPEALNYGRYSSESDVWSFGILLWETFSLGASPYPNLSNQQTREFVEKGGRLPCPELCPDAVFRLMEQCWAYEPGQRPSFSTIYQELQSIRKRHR
Description: Samples were resolved by SDS-PAGE as described above, but transferred to 0.2 μm polyvinylidene difluoride membranes by Trans-Blot Turbo™ Transfer system (Bio-Rad) directly after fluorescence scanning. Membranes were washed with TBS (50 mM Tris pH 7.5, 150 mM NaCl) and blocked with 5% milk in TBS-T (50 mM Tris pH 7.5, 150 mM NaCl, 0.05% Tween-20) for 1 h at rt.
Membranes were then incubated with primary antibody in 5% milk in TBS-T (FLAG, V5, β-actin; o/n at 4 °C) or washed three times with TBS-T, followed by incubation with primary antibody in 5% BSA in TBS-T (other antibodies, o/n at 4 °C). Membranes were washed three times with TBS-T, incubated with matching secondary antibody in 5% milk in TBS-T (1:5000, 1 h at rt) and then washed three times with TBS-T and once with TBS. Luminol development solution (10 mL of 1.4 mM luminol in 100 mM Tris pH 8.8 + 100 µL of 6.7 mM p-coumaric acid in DMSO + 3 µL of 30% (v/v) H2O2) or Clarity Max™ ECL Substrate (Bio-Rad) was added and chemiluminescence was detected on ChemiDoc™ MP System.

[1] = 1 h, 1 μM WEL028, 1 h preincubation

Chain of CDK13/cyclin K (Q14004 whole entry): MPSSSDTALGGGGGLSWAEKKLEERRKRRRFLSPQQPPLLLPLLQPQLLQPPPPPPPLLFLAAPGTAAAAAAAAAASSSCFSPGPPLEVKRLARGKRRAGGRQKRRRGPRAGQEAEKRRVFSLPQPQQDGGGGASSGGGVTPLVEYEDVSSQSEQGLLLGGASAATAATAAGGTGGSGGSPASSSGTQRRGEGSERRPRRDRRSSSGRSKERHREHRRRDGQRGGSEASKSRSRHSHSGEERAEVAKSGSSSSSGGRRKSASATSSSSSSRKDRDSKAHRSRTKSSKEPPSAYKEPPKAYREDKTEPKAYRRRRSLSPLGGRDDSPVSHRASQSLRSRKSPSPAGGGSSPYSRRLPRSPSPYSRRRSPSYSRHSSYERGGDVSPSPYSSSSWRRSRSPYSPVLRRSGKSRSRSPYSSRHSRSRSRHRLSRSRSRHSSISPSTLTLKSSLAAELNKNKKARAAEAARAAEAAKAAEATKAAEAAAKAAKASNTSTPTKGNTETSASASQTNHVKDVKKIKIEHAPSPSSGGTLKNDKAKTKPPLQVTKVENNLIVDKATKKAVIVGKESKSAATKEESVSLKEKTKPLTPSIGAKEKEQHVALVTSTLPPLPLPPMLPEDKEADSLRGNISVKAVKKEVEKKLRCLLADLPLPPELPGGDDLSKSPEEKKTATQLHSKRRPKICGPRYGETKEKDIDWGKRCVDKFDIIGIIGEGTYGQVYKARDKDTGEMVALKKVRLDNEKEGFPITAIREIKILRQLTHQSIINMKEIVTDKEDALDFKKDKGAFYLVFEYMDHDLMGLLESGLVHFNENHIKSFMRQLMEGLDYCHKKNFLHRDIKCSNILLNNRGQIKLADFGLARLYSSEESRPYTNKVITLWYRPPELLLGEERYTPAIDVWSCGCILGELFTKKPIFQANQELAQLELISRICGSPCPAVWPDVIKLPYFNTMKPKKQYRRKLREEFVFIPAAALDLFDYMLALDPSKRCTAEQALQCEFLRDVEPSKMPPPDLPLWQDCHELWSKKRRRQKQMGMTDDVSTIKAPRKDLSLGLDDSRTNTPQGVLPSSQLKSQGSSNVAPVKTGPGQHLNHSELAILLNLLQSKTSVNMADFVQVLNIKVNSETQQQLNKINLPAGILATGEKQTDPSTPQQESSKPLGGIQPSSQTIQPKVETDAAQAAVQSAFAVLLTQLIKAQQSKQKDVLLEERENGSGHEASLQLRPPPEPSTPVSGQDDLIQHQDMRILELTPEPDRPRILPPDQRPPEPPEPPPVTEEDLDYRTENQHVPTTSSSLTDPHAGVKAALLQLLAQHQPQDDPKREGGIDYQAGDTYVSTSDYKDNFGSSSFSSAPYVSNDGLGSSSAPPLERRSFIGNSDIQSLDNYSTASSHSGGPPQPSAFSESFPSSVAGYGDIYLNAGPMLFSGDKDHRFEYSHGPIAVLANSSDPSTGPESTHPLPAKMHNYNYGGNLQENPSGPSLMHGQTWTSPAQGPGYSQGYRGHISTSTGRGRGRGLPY
Chain of CDK13/cyclin K (O75909 whole entry partner): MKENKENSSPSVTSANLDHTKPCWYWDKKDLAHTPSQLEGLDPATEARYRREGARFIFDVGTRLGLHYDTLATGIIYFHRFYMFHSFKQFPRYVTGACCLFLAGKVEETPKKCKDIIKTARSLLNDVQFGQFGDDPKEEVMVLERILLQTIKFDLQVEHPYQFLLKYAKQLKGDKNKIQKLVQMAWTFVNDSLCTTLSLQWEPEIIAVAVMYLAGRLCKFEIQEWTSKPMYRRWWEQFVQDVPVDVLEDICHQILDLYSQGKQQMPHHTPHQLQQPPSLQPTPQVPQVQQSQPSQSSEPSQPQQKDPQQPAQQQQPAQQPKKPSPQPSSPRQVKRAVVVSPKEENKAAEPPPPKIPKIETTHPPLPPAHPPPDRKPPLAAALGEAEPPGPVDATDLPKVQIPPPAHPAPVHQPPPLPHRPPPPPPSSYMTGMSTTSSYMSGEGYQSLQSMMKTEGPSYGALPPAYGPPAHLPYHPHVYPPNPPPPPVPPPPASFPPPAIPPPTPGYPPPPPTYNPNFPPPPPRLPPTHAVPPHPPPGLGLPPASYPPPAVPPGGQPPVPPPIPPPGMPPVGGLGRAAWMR

SMILES: C#CCOc1ccc(Nc2ncc(Cl)c(Nc3ccccc3NC(=O)C=C)n2)c(OC)c1 [Compound 6]
- Inhibition (%) (CDK13/cyclin K; 1 μM WEL028, 1 h preincubation): -3%
- Inhibition at 1 µM (%) (CDK13/cyclin K; CDK13/cyclin K, 1 µM, LanthaScreen Binding, listed as WEL028, 1 µM): -1% and -5%
- Inhibition (%) (CDK2/cyclin A1; 1 μM WEL028, 1 h preincubation): 5%
- Inhibition at 1 µM (%) (CDK2/cyclin A1; CDK2/cyclin A1, 1 µM, LanthaScreen Binding, listed as WEL028, 1 µM): 7%
- inhibition at 1 µM (CDK2/cyclin A1; read-out: Inhibition at 1 µM (%), CDK2/cyclin A1, 1 µM, LanthaScreen Binding): 4%
- inhibition at 1 µM (CLK2): 1%
- inhibition at 1 µM (MAP3K5 (ASK1); [1]): 6%
- Inhibition at 1 µM (%) (MAP3K5 (ASK1); MAP3K5 (ASK1), 1 µM, LanthaScreen Binding, listed as WEL028, 1 µM): 8%
- inhibition at 1 µM (MAP3K5 (ASK1); read-out: Inhibition at 1 µM (%), MAP3K5 (ASK1), 1 µM, LanthaScreen Binding): 5%
- inhibition at 1 µM (MAP4K4 (HGK)): 7%
- inhibition at 1 µM (ROCK2): 0%
- Inhibition at 1 µM (%) (SGK2; 1 µM, ZLYTE, ATP Km app, listed as WEL028, 1 µM): 4% and -1%
- inhibition at 1 µM (SGK2; [1]): 2%
- IC50 (STK33): 1 µM
- Inhibition at 1 µM (%) (STK33; 1 µM, LanthaScreen Binding, listed as WEL028, 1 µM): 61%
- inhibition at 1 µM (STK33; [1]): 60%
- inhibition at 10 µM (STK33; 1 h, log[inhibitor] (M) -5.00, LanthaScreen Binding): 33%
- inhibition at 3.311 µM (STK33; 1 h, log[inhibitor] (M) -5.48, LanthaScreen Binding): 58%
- inhibition at 1.122 µM (STK33; 1 h, log[inhibitor] (M) -5.95, LanthaScreen Binding): 69%
- inhibition at 0.3715 µM (STK33; 1 h, log[inhibitor] (M) -6.43, LanthaScreen Binding): 43%
- inhibition at 0.123 µM (STK33; 1 h, log[inhibitor] (M) -6.91, LanthaScreen Binding): 23%
- inhibition at 0.04074 µM (STK33; 1 h, log[inhibitor] (M) -7.39, LanthaScreen Binding): 19%
- inhibition at 0.0138 µM (STK33; 1 h, log[inhibitor] (M) -7.86, LanthaScreen Binding): 6%
- inhibition at 0.004571 µM (STK33; 1 h, log[inhibitor] (M) -[…], LanthaScreen Binding): 7%
- Apparent fold selectivity (STK33; IC50 on that kinase divided by IC50 on FES^S700C): 254 fold
- inhibition at 1 µM (STK33; read-out: Inhibition at 1 µM (%), 1 µM, LanthaScreen Binding): 59%
- Inhibition at 1 µM (%) (ZAK): 2%
- Inhibition at 1 µM (%) (ZAK; listed as WEL028, 1 µM): 6%
- inhibition at 1 µM (ZAK; [1]): 4%
- Relative FES labeling (%) (FES^S700C; Fig. 4i, anti-phospho-FES Y713 band intensity, replicates, normalized to vehicle): 6.91% and 5.589% and 0.4481%
- Autophosphorylation of Tyr713 (FES^S700C): fully abolished autophosphorylation

Source: publication PMC7316778 (Nature Communications, 2020)
